Experimental data taken from US7998985B2, “1,5-diphenyl-3-pyridinylamino-1,5-dihydropyrrolidin-2-one as CB1 receptor modulator” (Eli Lilly and Company, priority 2006, dated 2011).

Experiments:
[1] = test system: alcohol-preferring (P) rats; experiment: 12-hour ethanol consumption in alcohol-preferring rats (P rats); assay type: in vivo, rat; conditions: female P rats, 15% (v/v) ethanol, continuous free access; Example 2 given p.o.
Description: Evaluate Example 2 for its ability to reduce consumption of ethanol in rats selectively bred for high oral ethanol intake (P rats). In addition, study the effects of Example 2 under conditions in which effects of the compound on motivation or the control of behavior by ethanol could be assessed.
Methods: Study the effects of Example 2 on female, alcohol-preferring (P) rats on alcohol consumption under a continuous free access paradigm. For comparative purposes test the standard opioid antagonist naltrexone. Monitor voluntary consumption of 15% (v/v) ethanol. Suspend Example 2 in vehicle (1% CMC, 0.5% SLS, 0.08% povidone, 0.05% Dow Corning antifoam 1510 US) and give p.o. 3 hours prior to the onset of the dark cycle. In addition, measure locomotor activity via infrared sensor.

[2] = test system: NIH male Swiss mice; experiment: Forced Swim Test (FST); assay type: in vivo, mouse; conditions: 90 minute pre-treatment, lowest dose with significant decrease in immobility time
Experimental: Receive NIH male Swiss mice (Harlan Sprague-Dawley, weight 20-25 g) 7 to 10 days prior to testing. House 12 mice per cage. Test only animals that weigh 25-30 g. On the day of testing, bring animals to the testing room at least 1 hour prior to dosing. When dosing starts, dose at 6-8 minute intervals between each dose with each mouse receiving either Administer vehicle (1% CMC, 0.5% SLS, 0.08% povidone, 0.05% antifoam) or Example 2, p.o. Next, place mice in a clean cage (4 mice per cage). After 90 minutes, start the test following a 90 minute pre-treatment with Example 2 or vehicle.
Mice FST: Place NIH-Swiss mice in clear plastic cylinders (diameter: 10 cm; height: 25 cm) filled to 6 cm with 22-25° C. water for six minutes. Record the duration of immobility during the last 4 minutes of the six-minute trial. A mouse is regarded as immobile when floating motionless or making only those movements necessary to keep its head above the water. Analyze data by ANOVA with a post-hoc Dunnett's test (alpha=0.05; JMP). Record the minimum effective dose (MED) as the lowest dose of compound at which statistically significant decrease in immobility time is observed versus a vehicle control.

[3] = biological target: T1, human CB2 receptor (Homo sapiens, UniProt P34972); experiment: Antibody-capture SPA GTP-γ-35S binding, antagonist/inverse agonist mode, human CB2 (Sf9 membranes); assay type: biochemical; conditions: Table 3
T1 construct: purchased Applied Cell Sciences, Gaithersburg, Md; PerkinElmer Life Sciences, Boston, Mass; host or cells: Sf9 insect cells (recombinant expression), membranes
T1 sequence (P34972 whole entry): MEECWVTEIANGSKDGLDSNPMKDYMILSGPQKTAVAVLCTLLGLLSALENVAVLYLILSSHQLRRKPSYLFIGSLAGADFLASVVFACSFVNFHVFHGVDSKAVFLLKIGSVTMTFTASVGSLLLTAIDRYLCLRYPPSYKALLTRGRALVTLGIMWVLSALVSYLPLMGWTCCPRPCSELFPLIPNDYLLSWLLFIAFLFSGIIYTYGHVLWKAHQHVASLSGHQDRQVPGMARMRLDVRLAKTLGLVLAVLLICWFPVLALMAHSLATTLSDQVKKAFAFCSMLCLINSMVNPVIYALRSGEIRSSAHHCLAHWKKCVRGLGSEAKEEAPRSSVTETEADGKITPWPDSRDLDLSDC

[4] = Bioavailability, dog; conditions: in vivo
Description: (§1) Methods for accessing bioavailability are well appreciated in the art. One such reference is Medicinal Research Reviews Vol. 21 No. 5 382-396 (2001).

[5] = Bioavailability, rat; conditions: in vivo
Description: as §1

[6] = biological target: hCB1 (Homo sapiens, UniProt P21554); experiment: hCB1 SPA GTPγ35S Sf9 membranes, antagonist mode (Table 3); assay type: biochemical; design: purchased Applied Cell Sciences, Gaithersburg, Md; PerkinElmer Life Sciences, Boston, Mass; host or cells: Sf9 insect cells (recombinant expression), membranes; conditions: hCB1 SPA GTPγ35S Sf9 Mem 22.7 ug protein/well Antagonist; read-out: Inverse Agonist Potency CB1 (Kb)
Sequence of hCB1 (P21554 whole entry): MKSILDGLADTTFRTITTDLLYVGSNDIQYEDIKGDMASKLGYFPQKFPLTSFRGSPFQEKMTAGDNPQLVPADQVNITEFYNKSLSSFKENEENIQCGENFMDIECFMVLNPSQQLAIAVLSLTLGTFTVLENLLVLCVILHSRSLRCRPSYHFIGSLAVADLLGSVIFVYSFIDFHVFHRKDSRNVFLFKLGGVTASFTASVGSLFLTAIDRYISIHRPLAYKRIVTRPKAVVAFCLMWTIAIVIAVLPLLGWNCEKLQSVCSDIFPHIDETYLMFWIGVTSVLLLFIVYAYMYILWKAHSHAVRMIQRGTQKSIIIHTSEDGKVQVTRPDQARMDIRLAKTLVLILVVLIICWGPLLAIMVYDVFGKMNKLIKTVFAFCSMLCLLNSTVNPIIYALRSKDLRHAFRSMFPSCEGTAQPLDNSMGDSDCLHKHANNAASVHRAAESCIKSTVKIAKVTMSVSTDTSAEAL

| Structure (SMILES) | Inverse Agonist Potency CB2 (Kb, nM) [3] | Kb [6] [nM] | further results |
| --- | --- | --- | --- |
| O=C1CC[C@@]2(O)[C@H]3Cc4ccc(O)c5c4[C@@]2(CCN3CC2CC2)[C@H]1O5 [Naltrexone, naltrexone, reference compound] |  |  | consumption of ethanol [1]: at higher doses, was also able to reduce ethanol intake |
| CC(C)(N[C@@H]1C[C@H](c2cccc(OC(F)(F)F)c2)N(c2ccc(C(F)(F)F)cc2)C1=O)c1ccc(C(F)(F)F)nc1.Cc1ccc(S(=O)(=O)O)cc1 [drawing 21] | No measurable activity |  | FST (MED mg/kg p.o.) [2]: 1 mg/kg; bioavailability [4]: 60%; bioavailability [5]: 65% |
| CC(C)(N[C@@H]1C[C@H](c2cccc(OC(F)(F)F)c2)N(c2ccc(C(F)(F)F)cc2)C1=O)c1ccc(C(F)(F)F)nc1.Cl [drawing 22] | No measurable activity |  |  |
| CC(C)(N[C@H]1C[C@H](c2cccc(OC(F)(F)F)c2)N(c2ccc(C(F)(F)F)cc2)C1=O)c1ccc(C(F)(F)F)nc1.Cc1ccc(S(=O)(=O)O)cc1 [drawing 23] | No measurable activity | 3 |  |
| CC(C)(N[C@H]1C[C@H](c2cccc(OC(F)(F)F)c2)N(c2ccc(C(F)(F)F)cc2)C1=O)c1ccc(C(F)(F)F)nc1.Cl [drawing 24] | No measurable activity | 8.8 |  |
